From patent US6451819B2, “Heterocyclic compounds useful as NMDA receptor selective subtype blockers” (Hoffmann-La Roche Inc., priority 2000, dated 2002)

tested on: not given; assay: not given; conditions: not given

melting point	SMILES
121 to 124 °C	Cl.O=S(=O)(c1ccc(O)cc1)C1CCN(CCCCc2ccccc2)C1 (racemic)

target: T1, NMDA receptor (3H-Ro 25-6981 binding site), rat brain membranes (Rattus norvegicus, UniProt P35439+Q00960); assay: 3H-Ro 25-6981 binding; conditions: not given
T1 construct: Membranes were prepared by homogenization of the whole brain minus cerebellum and medulla oblongata; from tissue; host or cells: rat whole brain minus cerebellum and medulla oblongata, membrane preparation
Protocol: 3H-Ro 25-6981 binding (Ro 25-6981 is [R—(R*,S*)]-a-(4-hydroxy-phenyl)-b-methyl-4-(phenyl-methyl)-1-piperidine propanol)
Male Füllinsdorf albino rats weighing between 150-200 g were used. Membranes were prepared by homogenization of the whole brain minus cerebellum and medulla oblongata with a Polytron (10,000 rpm, 30 seconds), in 25 volumes of a cold Tris-HCl 50 mM, EDTA 10 mM, pH 7.1 buffer. The homogenate was centrifuged at 48,000 g for 10 minutes at 4° C. The pellet was resuspended using the Polytron in the same volume of buffer and the homogenate was incubated at 37° C. for 10 minutes. After centrifugation the pellet was homogenized in the same buffer and frozen at −80° C. for at least 16 hours but not more than 10 days. For the binding assay the homogenate was thawed at 37° C., centrifuged and the pellet was washed three times as above in a Tris-HCl 5 mM, pH 7.4 cold buffer. The final pellet was resuspended in the same buffer and used at a final concentration of […].
3H-Ro 25-6981 binding experiments were performed using a Tris-HCl 50 mM, pH 7.4 buffer. For displacement experiments 5 nM of 3H-Ro 25-6981 were used and non-specific binding was measured using 10 mM of tetrahydroisoquinoline and usually it accounts for 10% of the total. The incubation time was 2 hours at 4° C. and the assay was stopped by filtration on Whatman GF/B glass fiber filters (Unifilter-96, Packard, Zürich, Switzerland). The filters were washed 5 times with cold buffer. The radioactivity on the filter was counted on a Packard Top-count microplate scintillation counter after addition of […] of microscint 40 (Canberra Packard S.A., Zürich, Switzerland).
The effects of compounds were measured using a minimum of 8 concentrations and repeated at least once. The pooled normalized values were analyzed using a non-linear regression calculation program which provide IC50 with their relative upper and lower 95% confidence limits (RS1, BBN, USA).

T1 sequence (Q00960 27-1482, other chains not shown): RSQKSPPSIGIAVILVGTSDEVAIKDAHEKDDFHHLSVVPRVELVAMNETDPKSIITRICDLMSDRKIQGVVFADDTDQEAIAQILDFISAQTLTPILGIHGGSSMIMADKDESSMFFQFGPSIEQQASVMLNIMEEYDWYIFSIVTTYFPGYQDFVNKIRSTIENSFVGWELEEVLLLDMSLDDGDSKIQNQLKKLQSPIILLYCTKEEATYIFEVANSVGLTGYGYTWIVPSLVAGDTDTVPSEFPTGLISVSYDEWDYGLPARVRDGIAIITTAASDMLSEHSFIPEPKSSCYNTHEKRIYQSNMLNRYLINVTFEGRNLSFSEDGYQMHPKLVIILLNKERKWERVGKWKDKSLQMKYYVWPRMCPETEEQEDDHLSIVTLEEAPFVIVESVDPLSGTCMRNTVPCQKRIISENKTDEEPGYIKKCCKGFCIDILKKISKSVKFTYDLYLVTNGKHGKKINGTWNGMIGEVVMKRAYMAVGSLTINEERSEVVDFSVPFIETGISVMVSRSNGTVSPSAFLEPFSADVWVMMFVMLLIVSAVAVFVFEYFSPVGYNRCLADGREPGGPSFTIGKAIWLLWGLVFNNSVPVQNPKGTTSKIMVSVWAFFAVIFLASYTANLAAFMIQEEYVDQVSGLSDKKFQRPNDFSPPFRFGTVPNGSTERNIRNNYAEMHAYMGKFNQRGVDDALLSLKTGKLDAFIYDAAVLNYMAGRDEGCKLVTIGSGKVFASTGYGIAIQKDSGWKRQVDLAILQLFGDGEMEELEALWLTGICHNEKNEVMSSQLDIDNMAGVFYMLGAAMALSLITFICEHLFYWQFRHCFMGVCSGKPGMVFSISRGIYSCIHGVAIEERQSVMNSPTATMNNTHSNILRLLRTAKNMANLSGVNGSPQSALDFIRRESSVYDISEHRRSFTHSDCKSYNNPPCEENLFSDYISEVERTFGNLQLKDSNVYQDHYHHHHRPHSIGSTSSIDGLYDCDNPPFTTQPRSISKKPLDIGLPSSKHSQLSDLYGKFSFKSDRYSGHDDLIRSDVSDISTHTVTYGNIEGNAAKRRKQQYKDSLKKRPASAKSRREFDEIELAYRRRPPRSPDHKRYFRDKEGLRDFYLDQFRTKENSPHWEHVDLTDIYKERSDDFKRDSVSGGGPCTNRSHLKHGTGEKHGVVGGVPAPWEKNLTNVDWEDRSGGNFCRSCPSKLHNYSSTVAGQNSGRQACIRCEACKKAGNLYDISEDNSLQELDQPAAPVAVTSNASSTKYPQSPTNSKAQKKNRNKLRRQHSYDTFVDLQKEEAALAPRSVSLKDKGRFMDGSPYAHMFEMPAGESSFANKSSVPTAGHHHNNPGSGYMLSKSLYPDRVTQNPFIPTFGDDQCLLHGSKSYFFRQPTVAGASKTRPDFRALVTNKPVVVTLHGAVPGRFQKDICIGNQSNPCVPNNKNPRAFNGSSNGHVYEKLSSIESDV

SMILES	IC50
O=S(=O)(c1ccc(O)cc1)[C@H]1CCN(CC(F)CCc2ccccc2)C1 (mixture of isomers) [Example 35, (2R,3S) and (2S,3S)-4-[1-(2-Fluoro-4-phenyl-butyl)-pyrrolidine-3-sulfonyl]-phenol]	29 nM
Oc1ccc(S[C@H]2CCN(CC(F)CCc3ccccc3)C2)cc1 (mixture of isomers) [Example 68, (2RS,3S)-4-[1-(2-Fluoro-4-phenyl-butyl)-pyrrolidin-3-ylsulfanyl]-phenol]	77 nM

same assay, conditions: displacement of 5 nM 3H-Ro 25-6981, rat whole brain minus cerebellum and medulla oblongata membranes, 2 hours at 4° C.; read-out: IC50

IC50	SMILES
31 nM	O=S(=O)(c1ccc(O)cc1)[C@H]1CCN(CC(O)C2Cc3ccccc3C2)C1 (mixture of isomers) [Example 43, (2R,3S) and (2S,3S)-4-[1-(2-Hydroxy-2-indan-2-yl-ethyl)-pyrrolidine-3-sulfonyl]-phenol]
59 nM	O=S(=O)(c1ccc(O)cc1)C1CCN([C@H]2CC[C@@H](c3ccccc3)CC2)C1 (relative stereo) [Example 6, (3RS,cis)-4-[1-(4-Phenyl-cyclohexyl)-pyrrolidine-3-sulfonyl]-phenol]
40 nM	O=S(=O)(c1ccc(O)cc1)C1CCN(C2CC(Cc3ccccc3)C2)C1 (stereo not drawn) [Example 4, (3RS,cis) and (3RS,trans)-4-[1-(3-Benzyl-cyclobutyl)-pyrrolidine-3-sulfonyl]-phenol]

Second part, the compound before the results:

SMILES	IC50
O=S(=O)(c1ccc(O)cc1)[C@@H]1CN(CCCCc2ccccc2)C[C@H]1O (racemic) [Example 16, (3RS,4RS)-4-(4-Hydroxy-benzenesulfonyl)-1-(4-phenyl-butyl)-pyrrolidin-3-ol]	80 nM
Oc1ccc(S[C@H]2CCN(CCCCc3ccccc3)C2)cc1 [Example 2, (S)-4-[1-(4-Phenyl-butyl)-pyrrolidin-3-yl-sulfanyl]-phenol]	9 nM
Oc1ccc(S[C@@H]2CCN(CCCCc3ccccc3)C2)cc1 [Example 3, (R)-4-[1-(4-Phenyl-butyl)-pyrrolidin-3-yl-sulfanyl]-phenol]	20 nM
[O-][S@@+](c1ccc(O)cc1)[C@H]1CCN(C[C@@H](F)CCc2ccccc2)C1 [Example 62, (2S,3S,S-oxide R)-4-[1-(2-Fluoro-4-phenyl-butyl)-pyrrolidine-3-sulfinyl]-phenol]	60 nM
